{
  "source": "patent US20230346884A1",
  "about": "“Molecular Targets for Modulation of Dissociative and Associative States” (The Board of Trustees of the Leland Stanford Junior …, priority 2020, published 2023)",
  "key": {"mice [1]": {"test_system": "mice", "test": "Hot plate test", "conditions": "for Dissociation-like behavior: disconnection between sensory-detection and affective responses: other drug classes, doses of b234", "protocol": "Hot Plate Test: Mice were placed on the hot plate (Bioseb), which was set to 55° C. and surrounded by a clear circular perimeter. Mouse activity was recorded using two cameras from different angles. The experiment ended when the mouse jumped to escape or 90 seconds had elapsed. Care was taken to clean and dry the hot plate apparatus between animals. For optogenetic experiments, mice were connected to patch cords and then returned to a holding cage. Illumination began 30 seconds before mice were placed on the hot plate."}, "mice [2]": {"test_system": "mice", "test": "Resident-intruder social interaction assay", "type": "in vivo, mouse", "conditions": "PCP 5 mg/kg", "experimental": "Social Interaction Assay: Resident-intruder social interaction was recorded for two minutes. Interactions were defined as close physical proximity behaviors, including sniffing, touching, and following. […] Illumination began 30 seconds before the same-sex intruder mouse was introduced."}, "mice [3]": {"test_system": "mice", "test": "Tail suspension test", "type": "in vivo, mouse", "conditions": "PCP 5 mg/kg", "experimental": "Tail Suspension Test: Mouse activity was recorded using a 60 Hz web camera. Struggling activity was quantified for minutes 2-10. […] Illumination began 30 seconds before tails were secured with tape and suspended from the beam. Mice were excluded if they climbed on their own tails."}, "mice [4]": {"test_system": "mice", "test": "Open field test", "type": "in vivo, mouse", "conditions": "5 min; vs saline; doses of b234", "text": "Open Field Test: Mice were placed in an evenly illuminated 50 cm×50 cm open field test box. Mouse position was captured using a webcam and Viewer software (Biobserve)."}, "[5]": {"test_system": "retrosplenial cortex (RSP)", "test": "Widefield (pan-cortical) imaging of cortical activity in GCaMP6s mice", "conditions": "widefield imaging; i.p.; ketamine 50 mg/kg subanesthetic dose; other drugs at doses of b234", "protocol": "(2 mg/kg), lidocaine (topical), LSD ((+)-Lysergic acid diethylamide (+)-tartrate (2:1), 0.3 mg/kg), and diazepam (2 mg/kg). […] For anti-depressant effects, human doses are typically 0.3-1 mg/kg, and in mouse 3-10 mg/kg.\nAs described^8, mice were anesthetized with isoflurane, the scalp was removed, the skull cleaned and dried, and a custom head-plate was cemented to contacts over the cerebellum and in front of the olfactory bulb. The skull was then covered in a thin layer of cyanoacrylate glue (Apollo 2000, Cyberbond), clear dental acrylic (Ortho-Jet, Lang Dental), and clear nail polish (Electron Microscopy Services). […] (0.1 mg/kg) was injected subcutaneously for pain management. […] Imaging was performed on a custom-built fluorescence microscope designed for high light collection efficiency and large field of view. […] Alternating 410 nm and 488 nm illumination for non-Ca^2+ dependent artifact removal was controlled using a microcontroller (Arduino) slaved to the frame output trigger of the camera.\nAnalysis was performed using custom MATLAB (MathWorks) scripts. Widefield imaging videos were registered to a 2D top-projection atlas generated from the annotated Allen Brain Atlas volume, version CCFv2, in MATLAB (MathWorks), using an affine transformation computed from four manually selected control points. Each video was DF/F normalized, using the median for each pixel over the entire time series as F. The 410 nm channel was then temporally smoothed using a moving average (width=400 ms). The smoothed 410 nm DF/F signal for each pixel was regressed onto the 488 nm DF/F signal for the corresponding pixel, and the regression coefficients were used to scale the 410 nm channel to the 488 nm channel. This scaled 410 nm DF/F signal was then subtracted from the 488 nm DF/F signal to produce a normalized signal for each pixel. For quantification, activity traces were extracted from points centered in five cortical regions (visual, somatosensory, parietal, motor, retrosplenial) on the left hemisphere of the brain. The video data was Gaussian smoothed spatially (radius=2 pixels). Similarly, for fiber photometry recordings, the 410 nm signal was regressed onto the 488 nm signal, the 410 nm signal was scaled by the regression coefficients, and then subtracted from the 488 nm signal.\nEach trace (corresponding to either a fiber photometry signal, a cellular two-photon signal, a widefield regional centroid, a widefield pixel, an sEEG trace, or a smoothed spike rate Neuropixels trace) was z-scored, and the power spectral density (PSD) was then estimated using Welch's method (pwelch( ) in Matlab), with a window size of 10*fs (15*fs for human sEEG) where fs is the sampling rate of the signal. The average band power within a specified band (i.e. 1-3 Hz) was then computed by integrating the PSD estimate (bandpower in Matlab). For displaying the traces of individual cells, traces were each zscored by subtracting the mean value of the trace (across the whole recorded time window) and dividing by the standard deviation of the trace. Unless otherwise indicated, the PSD was computed across the time window from minutes 10 to 11 post-injection."}},
  "note": "Entries after “also recorded” stand apart in the source; their conditions may differ.",
  "data": [
    {"molecule": "c1ccc(C2(N3CCCCC3)CCCCC2)cc1", "note": "[PCP, phencyclidine]", "values": [
      {"measurement": "Dissociation-like behavior: disconnection between sensory-detection and affective responses", "setting": "mice [1]", "result": "recapitulated ketamine's behavioral disconnection between sensory-detection and affective responses in the hot-plate test"},
      {"measurement": "Social behavior", "setting": "mice [2]", "result": "inhibited longer-timescale escape and social behaviors"},
      {"measurement": "Longer-timescale escape behavior", "setting": "mice [3]", "result": "inhibited longer-timescale escape and social behaviors"},
      {"measurement": "Open-field locomotion velocity", "setting": "mice [4]", "result": "locomotion velocity was unchanged"},
      {"measurement": "Cortical activity pattern: 1-3 Hz oscillation localized to retrosplenial cortex (RSP)", "setting": "[5]", "result": "induced the RSP-localized oscillation"}
    ]},
    {"molecule": "CC(C)c1cccc(C(C)C)c1O", "note": "[propofol]", "values": [
      {"measurement": "Cortical activity pattern: 1-3 Hz oscillation localized to retrosplenial cortex (RSP)", "setting": "[5]", "result": "elicited waves of cortical activity without RSP restriction"}
    ]},
    {"molecule": "(+)-Lysergic acid diethylamide (+)-tartrate (2:1) [LSD]", "values": [
      {"measurement": "Responsivity to salient stimuli (time-to-jump, rearing/socialization)", "setting": "mice [1]; LSD 0.3 mg/kg", "result": "tended to increase responsivity to salient stimuli (decreased time-to-jump, increased rearing/socialization)"},
      {"measurement": "Dissociation-like behavior: disconnection between sensory-detection and affective responses", "setting": "mice [1]", "result": "disrupted neither sensory-detection nor affective responses"},
      {"measurement": "Open-field locomotion velocity", "setting": "mice [4]", "result": "reducing locomotion in the stimulus-poor open-field; also recorded: decreased velocity"},
      {"measurement": "Cortical activity pattern: 1-3 Hz oscillation localized to retrosplenial cortex (RSP)", "setting": "[5]", "result": "did not elicit oscillation"}
    ]},
    {"molecule": "Cc1cccc([C@H](C)c2cnc[nH]2)c1C", "note": "[dexmedetomidine]", "values": [
      {"measurement": "Cortical activity pattern: 1-3 Hz oscillation localized to retrosplenial cortex (RSP)", "setting": "[5]", "result": "elicited waves of cortical activity without RSP restriction"}
    ]},
    {"molecule": "C[C@]12N[C@H](Cc3ccccc31)c1ccccc12", "note": "[MK-801]", "values": [
      {"measurement": "Cortical activity pattern: 1-3 Hz oscillation localized to retrosplenial cortex (RSP)", "setting": "[5]", "result": "induced the RSP-localized oscillation"}
    ]},
    {"molecule": "CC12CC3CC(C)(C1)CC(N)(C3)C2", "note": "[Memantine, memantine]", "values": [
      {"measurement": "Cortical activity pattern: 1-3 Hz oscillation localized to retrosplenial cortex (RSP)", "setting": "[5]", "result": "did not elicit oscillation"}
    ]},
    {"molecule": "CN1C(=O)CN=C(c2ccccc2)c2cc(Cl)ccc21", "note": "[diazepam]", "values": [
      {"measurement": "Dissociation-like behavior: disconnection between sensory-detection and affective responses", "setting": "mice [1]", "result": "did not recapitulate dissociative-like behavior"},
      {"measurement": "Open-field locomotion velocity", "setting": "mice [4]", "result": "decreased velocity"},
      {"measurement": "Cortical activity pattern: 1-3 Hz oscillation localized to retrosplenial cortex (RSP)", "setting": "[5]", "result": "Neither the GABAergic sedative diazepam nor the centrally-acting opioid-analgesic buprenorphine elicited the rhythm"}
    ]}
  ]
}
